Reference: paper PMC11985661 (Naunyn-Schmiedeberg's Archives of Pharmacology, 2024)
Where two headings read alike, the source gives them in different places.

Tests used:
[1] = test system: MCF-7; assay: MTT cytotoxicity assay; assay type: cell-based; conditions: Homo sapiens, read-out: IC50 MCF-7
Method: (§1) Numerous cancer cell lines were procured from the American Type Culture Collection (ATCC) situated in Manassas, USA. […] The culture medium was supplemented with penicillin (100 units/mL), streptomycin ([…]), and heat-inactivated fetal bovine serum (10%). The cultivation of these cancer cells was carried out in a humidified atmosphere with 5% (v/v) CO2 at a temperature of 37 °C.
(§2) The 3-[4,5-dimethylthiazole-2-yl]-2,5-diphenyltetrazolium bromide (MTT) assay was used to evaluate the cytotoxicity of different substances or treatments. A commonly used approach for assessing the viability and proliferation of cells, including the cancer cell lines described, is colorimetric analysis.
(§3) Actively proliferating cells from different cancer cell lines were first trypsinized and quantified. […] These seeded cells were incubated in a humidified environment at 37 °C for 24 h to allow for cell attachment and acclimation.
(§4) Following the initial incubation, the cells were subjected to different doses of the chemicals under investigation, ranging from 0.1 to 1000 μM, for a duration of 72 h. The MTT assay was used to evaluate the treated cells’ vitality. Specifically, the culture media were removed, and the cells were incubated with 200 μl of 5% MTT solution per well.
(§5) Due to this, the MTT dye was metabolized by the living cells over the course of 2 h, forming colorful, insoluble formazan crystals.
(§6) This allowed the viable cells to metabolize the MTT dye into colored, insoluble formazan crystals over a 2-h period. After this incubation, the formazan crystals were dissolved in 200 μl of acidified isopropanol per well for 30 min after the residual MTT solution was withdrawn. This dissolution step was carried out at room temperature with a MaxQ 2000 plate shaker, covered with aluminum foil and continuously shaking.
(§7) The absorbance of the dissolved formazan crystals was measured at 570 nm through the use of Stat FaxR 4200 plate reader.

[2] = biological target: T1, EGFR^T790M (Homo sapiens, UniProt P00533, T790M); assay: EGFR^T790M kinase inhibition assay (HTRF); assay type: biochemical; conditions: mean of three separate experiments
T1 construct: purchased Sigma
Method: The study utilized the homogeneous time resolved fluorescence (HTRF) assay to evaluate the kinase activity of EGFR^T790M mutant. The EGFR^T790M enzyme and ATP were obtained from Sigma. Initially, the tested chemical was first incubated for 5 min with the EGFR^T790M enzyme and its substrates in an enzymatic buffer. This pre-incubation step allowed the compound to interact with the enzyme before the catalytic reaction was initiated. […] The assay was carried out at room temperature for 30 min. The samples were mixed with detection reagents containing EDTA to stop the enzymatic process. The detection phase was allowed to proceed for 1 h. By utilizing GraphPad Prism 5.0 software, the inhibitory potency of the tested compounds was determined by calculating the half-maximal inhibitory concentration (IC50) values. Three independent measurements were done to determine the concentration of each compound.

[3] = test system: A549; assay: MTT cytotoxicity assay; assay type: cell-based; conditions: Homo sapiens, 72 h, mean of three separate experiments
Method: as §1, §2, §3, §4, §5, §6, §7

[4] = test system: HepG2; assay: MTT cytotoxicity assay; assay type: cell-based; conditions: Homo sapiens, read-out: IC50 HepG2
Method: as §1, §2, §3, §4, §5, §6, §7

[5] = test system: HCT116; assay: MTT cytotoxicity assay; assay type: cell-based; conditions: Homo sapiens, HCT-116, 72 h, mean of three separate experiments
Method: as §1, §2, §3, §4, §5, §6, §7

[6] = biological target: T2, VEGFR-2 (Homo sapiens, UniProt P35968); assay: In vitro VEGFR-2 kinase assay (Alpha Screen, anti-phosphotyrosine antibody); assay type: biochemical; conditions: mean of three separate experiments
T2 construct: purchased Millipore, UK
T2 sequence (P35968 20-1356): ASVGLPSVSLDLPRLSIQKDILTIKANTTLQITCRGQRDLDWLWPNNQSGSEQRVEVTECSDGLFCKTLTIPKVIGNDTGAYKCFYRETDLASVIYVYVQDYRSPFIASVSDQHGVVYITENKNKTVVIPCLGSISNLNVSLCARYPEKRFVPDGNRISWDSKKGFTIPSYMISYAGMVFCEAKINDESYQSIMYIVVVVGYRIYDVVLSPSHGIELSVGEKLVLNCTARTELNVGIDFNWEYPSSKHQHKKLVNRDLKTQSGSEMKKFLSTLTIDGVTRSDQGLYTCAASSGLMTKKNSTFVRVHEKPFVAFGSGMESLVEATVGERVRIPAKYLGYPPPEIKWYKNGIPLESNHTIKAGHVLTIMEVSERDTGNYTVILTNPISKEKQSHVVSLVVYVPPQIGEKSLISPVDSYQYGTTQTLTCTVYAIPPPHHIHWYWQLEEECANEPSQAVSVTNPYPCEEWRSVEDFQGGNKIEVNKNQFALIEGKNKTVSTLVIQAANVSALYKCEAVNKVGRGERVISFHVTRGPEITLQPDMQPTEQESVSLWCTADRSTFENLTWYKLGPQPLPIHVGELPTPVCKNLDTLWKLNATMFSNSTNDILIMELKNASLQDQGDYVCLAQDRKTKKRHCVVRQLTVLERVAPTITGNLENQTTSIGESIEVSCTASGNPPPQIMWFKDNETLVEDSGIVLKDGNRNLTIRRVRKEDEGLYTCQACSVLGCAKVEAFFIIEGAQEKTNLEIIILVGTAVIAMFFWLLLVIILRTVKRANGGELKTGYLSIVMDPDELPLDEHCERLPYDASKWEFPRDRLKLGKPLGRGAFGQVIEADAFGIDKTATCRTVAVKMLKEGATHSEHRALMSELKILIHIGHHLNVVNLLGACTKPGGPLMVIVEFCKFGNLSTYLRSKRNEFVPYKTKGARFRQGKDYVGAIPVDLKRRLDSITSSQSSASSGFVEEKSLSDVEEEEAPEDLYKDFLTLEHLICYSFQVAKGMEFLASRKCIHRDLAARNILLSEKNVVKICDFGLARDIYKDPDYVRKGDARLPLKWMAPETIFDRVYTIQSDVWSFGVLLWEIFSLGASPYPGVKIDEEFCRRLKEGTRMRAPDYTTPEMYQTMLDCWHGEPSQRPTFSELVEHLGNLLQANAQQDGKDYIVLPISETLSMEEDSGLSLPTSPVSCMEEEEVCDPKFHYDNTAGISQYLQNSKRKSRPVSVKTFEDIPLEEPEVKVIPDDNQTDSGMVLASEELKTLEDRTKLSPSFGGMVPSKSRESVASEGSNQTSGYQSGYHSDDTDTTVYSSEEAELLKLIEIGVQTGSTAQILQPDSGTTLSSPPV
Method: Analyzing the assay of VEGFR-2 kinase involved utilizing the Alpha Screen system (PerkinElmer, USA) and an anti-phosphotyrosine antibody in accordance with the manufacturer’s protocol. A solution containing 50 mM Tris–HCl (pH 7.5), 5 mM MnCl2, 5 mM MgCl2, 0.01% Tween-20, and 2 mM DTT was used to conduct the enzyme reactions. A total of 10 μM ATP, 0.1 μg/mL of biotinylated poly-GluTyr (in a 4:1 ratio), and 0.1 nM of VEGFR-2 (Millipore, UK) were all added in the reaction mixture.
After an overnight dark incubation, the plate was read using an ELISA Reader (PerkinElmer, USA). The baseline control was represented by wells with biotinylated poly-GluTyr (4:1) and the enzyme but without ATP, and the reaction control was provided by wells with the substrate and the enzyme but not the tested compounds.
The percentage inhibition was computed by comparing contrasting the compound-treated samples with the control incubations.

T1 sequence (P00533 25-1210 T790M): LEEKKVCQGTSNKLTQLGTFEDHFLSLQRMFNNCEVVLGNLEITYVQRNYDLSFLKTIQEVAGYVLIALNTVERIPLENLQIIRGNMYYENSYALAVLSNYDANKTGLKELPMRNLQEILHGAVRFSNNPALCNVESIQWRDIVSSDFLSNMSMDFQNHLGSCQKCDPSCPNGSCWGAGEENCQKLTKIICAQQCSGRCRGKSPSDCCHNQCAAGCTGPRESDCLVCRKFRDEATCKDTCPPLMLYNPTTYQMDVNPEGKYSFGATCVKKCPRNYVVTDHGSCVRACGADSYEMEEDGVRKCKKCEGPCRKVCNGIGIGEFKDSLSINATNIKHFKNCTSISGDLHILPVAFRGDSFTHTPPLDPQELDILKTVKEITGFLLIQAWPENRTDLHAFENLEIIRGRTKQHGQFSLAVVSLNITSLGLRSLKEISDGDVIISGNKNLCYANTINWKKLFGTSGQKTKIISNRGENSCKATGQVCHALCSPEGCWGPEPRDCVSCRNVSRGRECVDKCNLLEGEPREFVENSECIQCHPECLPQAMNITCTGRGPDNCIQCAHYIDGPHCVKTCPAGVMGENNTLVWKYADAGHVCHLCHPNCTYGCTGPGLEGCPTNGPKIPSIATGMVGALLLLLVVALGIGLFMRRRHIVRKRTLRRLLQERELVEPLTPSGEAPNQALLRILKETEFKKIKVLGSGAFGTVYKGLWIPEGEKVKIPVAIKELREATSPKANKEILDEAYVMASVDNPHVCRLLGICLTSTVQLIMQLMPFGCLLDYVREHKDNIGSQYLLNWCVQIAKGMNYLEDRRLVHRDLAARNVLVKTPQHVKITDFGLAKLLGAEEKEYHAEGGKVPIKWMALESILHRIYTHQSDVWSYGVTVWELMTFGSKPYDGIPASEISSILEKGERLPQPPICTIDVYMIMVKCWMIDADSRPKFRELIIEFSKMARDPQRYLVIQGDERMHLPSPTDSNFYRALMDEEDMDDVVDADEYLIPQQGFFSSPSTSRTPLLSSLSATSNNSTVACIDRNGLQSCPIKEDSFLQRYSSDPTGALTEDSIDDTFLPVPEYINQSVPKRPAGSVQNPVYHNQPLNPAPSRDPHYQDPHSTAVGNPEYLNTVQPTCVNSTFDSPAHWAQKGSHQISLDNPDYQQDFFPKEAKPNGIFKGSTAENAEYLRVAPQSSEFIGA

## C#Cc1cccc(Nc2ncnc3cc(OCCOC)c(OCCOC)cc23)c1 [Erlotinib]
[1]; MCF7, 72 h
  IC50: 8.2 µM

## C[C@@H]1O[C@@H](OC[C@H]2O[C@@H](Oc3c(-c4ccc(O)c(O)c4)oc4cc(O)cc(O)c4c3=O)[C@H](O)[C@@H](O)[C@@H]2O)[C@H](O)[C@H](O)[C@H]1O [Rutin (3), rutin]
[2]
  IC50: 0.66 µM
[3]
  IC50: 8.71 µM
[4]; HepG2, MTT, 72 h, mean of three separate experiments
  IC50: 14.9 µM
[5]
  IC50: 15.6 µM
[1]; MCF7, MTT, 72 h, mean of three separate experiments
  IC50: 12.3 µM
[6]
  IC50: 1.18 µM

## CNC(=O)c1cc(Oc2ccc(NC(=O)Nc3ccc(Cl)c(C(F)(F)F)c3)cc2)ccn1 [Sorafenib]
[4]; HepG2, 72 h
  IC50: 4 µM
